Measured values taken from patent US20060002932A1, “Methods and compositions for enhancement of immunity by in vivo depletion of immunosuppressive cell activity” (priority 2004, published 2006).
Values joined by “and” are separate entries in the source; they are usually repeats but may differ in a detail not shown here. Equal entries are not always repeated. “Also recorded” adds a separate entry of the source.

How the values were obtained:
CD4^+/CD25^high Treg = assay: Depletion of regulatory T cells in vivo (FACS of patient PBMC); set-up: species or system human; conditions: for Treg Depletion (%): single i.v. dose 18 μg/kg
Procedure: Four-color FACS analyses were performed using a Becton Dickinson FACSCalibur™. Fluorochrome-conjugated antibodies including anti-CD4 FITC, anti-CD45RO, anti-CD45RA (Caltag, Burlingame, Calif.); anti-CD25 PE (Becton Dickinson, California, CA) as well as isotypic control antibodies (Caltag, Burlingame, Calif.) were used for T-cell staining. Expression of GITR was analyzed by staining T cells with anti-GITR antibody (R&D Systems, Minneapolis, Minn.) followed by secondary goat anti-mouse antibody conjugated to APC. For determination of intracellular CTLA-4 expression, T cells were permeabilized with 0.5% saponin, fixed with 4% paraformaldehyde and then stained with biotinylated anti-CD152 (Becton Dickinson, California, CA) followed by APC-strepavidin (Becton Dickinson, California, CA). A total of 1×10^6 cells were suspended in staining buffer (PBS with 1% FCS, 2 mM EDTA, and 0.1% sodium azide) and incubated for 20 minutes at 4° C. with the antibody. Data were analyzed and presented using CELLQuest™ software. Sorting of CD4^+CD25^neg, CD4^+CD25^int and CD4^+CD25^high T cells was performed with a BD FACSAria™ cell sorter after antibody labeling. For detection of cytokine secretion, isolated CD4^+ T cells were activated for 16 hours in the presence of autologous mRNA-transfected DC. Cytokine secretion was measured using c Th1/Th2 cytokine cytometric bead arrays according to the manufacturer's protocol (BD Biosciences Pharmingen, San Diego, Calif.).
Using these methods, the degree of regulatory T cell depletion efficacy in the four subjects treated on the clinical protocol was determined.
Four-color FACS analyses were performed using the following antibodies: anti-CD4 FITC, anti-CD45RO, anti-CD45RA (Caltag), anti-CD25 PE (Becton Dickinson), anti-GITR (R&D Systems), and isotypic controls (Caltag). Sorting of CD4^+/CD25^neg, CD4^+/CD25^int and CD4^+/CD25^high T cells was performed using a Becton Dickinson FACSAria™ cell sorter after antibody labeling. For intracellular detection of FoxP3, cells were permeabilized with 30 μg/ml digitonin for 45 minutes at 4° C. Subsequently, cells were stained with anti-FoxP3 antibody (Abcam), and R-PE anti-goat IgG in the presence of 10 μg/ml digitonin for 30 minutes at 4° C. Following staining, cells were fixed and analyzed by FACS. For intracellular CTLA-4 detection, T cells were permeabilized, fixed, and stained with biotinylated anti-CD152 (Becton Dickinson) followed by APC-streptavidin (Becton Dickinson). A total of 1×10^6 cells was suspended in staining buffer (PBS with 1% FCS, 2 mM EDTA, and 0.1% sodium azide) and incubated for 20 minutes at 4° C. with the antibody.

[1] = Clinical toxicity in cancer patients; assay type: in vivo, human
Procedure: All subjects received a total of three intradermal injections of total tumor RNA-transfected DC. The injections were given intradermally at biweekly intervals and consisted of 1×10^7 cells suspended in 200 μL 0.9% sodium chloride (Abbott Laboratories, Abbott Park, Ill.) at each vaccination cycle. Following treatment, subjects were evaluated for toxicity, immunological and clinical response to therapy. Follow-up visits occurred biweekly for three visits, monthly for one visit, then every 3 months or until the subject was removed from the study.
Having shown that regulatory T cell elimination is capable of enhancing T-cell responses in vitro, a clinical study was initiated to analyze the efficacy of this strategy to a) eliminate regulatory T cells and b) to enhance a vaccine-induced T-cell response in end-stage cancer patients. Seven patients with metastatic renal cell (RCC), and one subject with disseminated ovarian carcinoma (OVA) were treated in an institutional review board (IRB) and Food and Drug Administration (FDA)-approved pilot study. […] PBMCs were also obtained from a subject who received DAB389IL-2 only under separate informed consent.
Treatment of patients was performed following written informed consent as part of an Institutional Review Board- and Federal Drug Administration-approved protocol. Patients with histologically-confirmed metastatic RCC were eligible for this study. One patient with disseminated ovarian carcinoma was included and treated on a compassionate basis. All patients were required to have adequate hepatic, renal, and neurological function, a life expectancy of >6 months, and a Karnofsky performance status of >70%. Patients must have had recovered from all toxicities related to any prior therapy and have not received any chemotherapy, radiation therapy, or immunotherapy for at least 6 weeks prior to study entry. Excluded from the study were patients with CNS metastases, with a history of autoimmune disease, with serious intercurrent chronic or acute illnesses. Patients on immunosuppressive agents were also excluded. […] All subjects received 3 intradermal injections of tumor RNA-transfected DC. The injections were given intradermally at biweekly intervals and consisted of 1×10^7 cells suspended in 200 μL 0.9% sodium chloride at each vaccination. Following treatment, subjects were evaluated for clinical toxicity, immunological and clinical responses. Due to regulatory restrictions and, in some subjects, limited access to tumor tissue, no tumor biopsies were performed.
Having shown that Treg elimination is capable of enhancing T-cell responses in vitro, a clinical study was initiated to test the Treg depletion concept in a human vaccination setting. Eleven patients including 10 with metastatic RCC and one with disseminated ovarian carcinoma (OVA) were treated in an Institutional Review Board (IRB) and Food and Drug Administration (FDA)-approved study.

Substance: denileukin diftitox [DAB389IL-2]
- Treg Depletion (%) (CD4^+/CD25^high Treg; Example 1, per patient, four days after treatment): 74% and 88% and 37% and 77%
- Treg Depletion (%) (CD4^+/CD25^high Treg; Example 1, per patient, four days after treatment, listed as DAB 389 IL-2): 74% and 88% and 37% and 77%
- Treg Depletion (%) (CD4^+/CD25^high Treg; Example 2, per patient, 4 days after infusion): 74% and 72% and 68% and 76% and 57% and 26% and 35%
- effect on CD25^neg/int subsets (CD4^+/CD25^high Treg; total CD25^pos cells after DAB389IL-2): CD25^neg/int subsets were unaffected
- Treg restored in the peripheral T-cell pool (CD4^+/CD25^high Treg; within two months): approximately 75%
- reduction in absolute neutrophil counts (ANC) ([1]; average, 5 of 6 evaluable subjects): 10%
- decrease in absolute neutrophil counts (ANC) ([1]; one subject): 20%
- ALT elevations ([1]; single i.v. dose 18 μg/kg): transient, grade II ALT elevations in one subject; also recorded: transient grade II serum alanine aminotransferase (ALT) elevations (n=1)
- constitutional symptoms ([1]; single i.v. dose 18 μg/kg): Grade I constitutional symptoms in two subjects; also recorded: grade I constitutional symptoms such as low-grade fever and malaise (n=4)
- serum rheumatoid factor ([1]; single i.v. dose 18 μg/kg): grade I elevation of serum rheumatoid factor (n=1)
